Columns and labels:
[1] = test system: OBP2; test: Fluorescent-quench ligand-protein-binding assay (OBP2 binding); design: species or system Apis mellifera
Text: To identify a honeybee repellent disclosed herein, candidate compounds were screened based upon the fact that 2-heptanone is an established repellent of bees. 2-heptanone is thought to mediate its behavioral response through binding to a specific odorant-binding protein called OBP2. […] Such assays are generally known in the art. See, e.g., Briand, et al., Ligand-Binding Properties and Structural Characterization of a Novel Rat Odorant-Binding Protein Variant, Eur. J. Biochem. 267(10): 3079-3089 (2000); Briand, et al., Ligand Binding and Physico-Chemical Properties of ASP2, A Recombinant Odorant-Binding Protein From Honeybee (Apis mellifera L.), Eur. J. Biochem. 268(3): 752-760 (2001); Briand, et al., Characterization of a Chemosensory Protein (ASP3c) from Honeybee (Apis mellifera L.) as a Brood Pheromone Carrier, Eur. J. Biochem. 269(18): 4586-4596 (2002), each of which is hereby incorporated by reference in its entirety.

[2] = test system: Apis mellifera Carniolan foraging worker honeybees; test: Proboscis extension response (PER) assay with bees conditioned to 2-heptanone; assay type: in vivo; conditions: 0.5% compound in Triton X-100/water on filter paper, 4 s exposure; only bees giving PER with 2-heptanone and not with water or 15% Triton X-100 controls counted
Protocol: To determine whether a living honeybee can recognize a candidate compound, these compounds were tested using a proboscis extension response (PER) assay using classical conditioning approaches. Proboscis extension response conditioning is a case of appetitive learning, in which bees learn to associate odor stimuli with sucrose reward in the laboratory. In this case, bees were conditioned to produce a PER to 2-heptanone as the conditioned stimulus and a sugar reward as the unconditioned stimulus. These trained bees were then exposed to an odor pulse of a candidate compound to test whether a candidate compound would also produce a PER. If the candidate compound “mimics” 2-heptanone then the honeybee will extend its proboscis.
For conditioning procedures, Apis mellifera Carniolan foraging worker honeybees were obtained from a local apiary (typically 60 bees per shipment). The honeybees were held overnight in insect cages with food and water freely available, in an environmentally controlled room on a light cycle similar to the ambient cycle at the time of the assay.
For conditioning procedures, all tests were done in an odorant delivery apparatus set inside a fume hood. The apparatus comprised a set of open-ended, horizontal, 3 cm diameter by 10 cm long plastic tubes. Each tube was designed where a honeybee could be positioned at the distal end of a tube, with the opening at the other end of the tube located proximal to an inlet of the fume hood. To deliver an odorant, room air was pumped by a diaphragm pump through a particle filter via 0.25 inch plastic tubing at approximately 0.7 m/sec. The air flow passes into the headspace above an odorant (0.5% [v/v] 2-heptanone dissolved in odorless light paraffin oil) contained in a 100 mL bottle. The headspace air then passes through another plastic tube to a manifold of 4-way valves, each of which was attached near the proximal end of a plastic tube containing a bee. Each bee was exposed separately for a desired time period to the odorant by opening and closing the appropriate valve. When each valve was closed, the odor was flushed away immediately by the continuous fume hood air stream.
To train a honeybee to respond to a conditioned and unconditioned stimuli, bees were placed, without anesthesia, in individual 1.5 mL micro-centrifuge holding tubes and held overnight without access to food or water. The holding tubes containing the starved bees were placed in racks in groups of eight. One rack at a time was placed behind the odorant delivery apparatus so that each bee's head is centered at the distal end of a horizontal plastic tube. Each bee was exposed to the 2-heptanone odorant alone for four seconds, and then while being fed an 80% sucrose solution for and additional three seconds. The sucrose solution was delivered on a piece of saturated filter paper held in forceps. […] Positive and negative responses were recorded. A positive PER was scored when a bee extended its proboscis before the sucrose appeared. In a typical trial, 48 individual bees were subjected to conditioning.
After conditioning, honeybees were tested with the candidate compounds the same day or on the following day or, most commonly, both. When held overnight, bees were fed with sucrose and kept in their holding tubes. When tested the day after training, bees were given one or more rounds of conditioning with 2-heptatone to refresh their memories. Candidate compounds stocks were made at 5% (w/v) in polyoxyethylene octyl phenyl ether (TRITON® X-100), a non-ionic detergent/surfactant, and stored at 4° C. […] Test solutions were made fresh daily by mixing stock solutions with water for a final compound concentration of 0.5%. A solution of 0.5% 2-heptanone in paraffin oil was used as a positive control.

[3] = test system: Apis mellifera Carniolan foraging worker honeybees; test: Choice test in a free-flight box apparatus; assay type: in vivo; conditions: for P (probability that a honeybee will return to a test dish, nP divided by n): control likelihood without compound 47.5%; for nP (number of tests a honeybee returned to a preferred test dish): free-flight box, 2 μL of 0.05-0.5% compound on filter papers under honey dish
Text: To determine whether living honeybees will choice to move towards a source of a candidate compound, these compounds will be assayed using a choice test in a free-flight box apparatus.
All tests will be done in a free-flight box apparatus. The apparatus comprises a 244 cm long×46 cm deep×30 cm high clear plastic box including two equally-sized independent testing chambers, each with 10 cm diameter air inlets that admit filtered room air, separated by a smaller central chamber with a screened air outlet to each testing chamber. Air can be pulled through the sealed box via a 10 cm diameter duct from the air outlet using an AQE Fume Fighter 500 fume extractor (BPA Air Quality Solutions, LLC, Charleston, S.C.), which removes the test odors using activated charcoal and HEPA filters. The box is housed in an environmentally controlled room with overhead illumination timed to correspond to the current ambient light cycle including 2 additional sets of lights timed to approximate crepuscular lighting conditions. The bottom of the apparatus will be lined with clean absorbent paper marked with a 4×9 grid pattern, forming 12 cm×12 cm squares with marked coordinates.
Apis mellifera Carniolan foraging worker honeybees will be obtained from a local apiary (typically 60 bees per shipment). Thirty honeybees will be put into each testing chamber and will be allowed to acclimate for 24 hours with food and water freely available. At the beginning of each test day all food will be removed from the test chamber, but water will be continually available throughout all tests. For each test, approximately 0.3 g of organic, raw orange blossom honey will be added to each clean small plastic weigh boat (Cole-Palmer). The honey boats will be placed in small plastic culture dishes, which will be distributed in the marked squares in the chambers. The positions of the dishes on the grid for a set of trials will be chosen to avoid the bees' preferred resting area so that they will have to find the food actively, but the same dish positions will be maintained for a given set of trials. We will use seven dishes of honey: six to which the bees will have access and a seventh that will have a screened lid. The honey in each boat will be weighed on an analytical balance before and after the test, with the screened sample as a control for evaporative loss. The fume extractor will be left off during the experimental trails, and will be turned on to clear the air after the test dishes are covered and removed from the chamber at the end of each trial.
Based on the observation that bees tend to return to dishes in the same position where they have fed before, each set of trials with each group of bees began with “Pattern Identification” tests to see which dishes lose the most weight, reflecting the most feeding. Once bees are consuming an acceptable amount in 10-15 min, typically in 1-2 trials, a set of test compound trials will begin. The test compound will be pipetted onto pieces of filter paper placed on the dish bottom below the boat containing a fresh, weighed honey sample so that the test compound will be inaccessible to the bees. We used 2 μL of a candidate compound at a concentration of 0.05-0.5%, in Triton X-100 or paraffin oil, on each of four pieces of filter paper per dish. The test-solution dishes will be set at the same positions as the one or two dishes favored in the preceding Pattern Identification trial. To eliminate interference from the solvent, the other dishes without the test substance will contain the same volume of the appropriate solvent on filter papers as the test solution dishes. The bees will be allowed to feed for 10-15 minutes. Bee movements will be recorded by a small, wide-angle digital video camcorder (HD Hero 960; GoPro, Halfmoon Bay, Calif.) placed on a tripod in front of the test chamber. […]

Row | SMILES | OBP2 binding characteristic of compound [1] | 2-heptanone positive bees testing positive to compound [2] [%] | P (probability that a honeybee will return to a test dish, nP divided by n) [3] | nP (number of tests a honeybee returned to a preferred test dish) [3]
1 | c1ccc(Oc2cc(-n3cccn3)nc(-c3ccccc3)n2)cc1 [compound 80, 4-phenoxy-2-phenyl-6-(1H-pyrazol-1-yl)pyrimidine] | Moderate (Moderate, indicates that 50% or less of the compound bound to OBP2.) | 20.0 | 0.333 | 2
2 | Oc1c(Br)cc(Cl)cc1C=Nc1ccccn1 [compound 83, 2-bromo-4-chloro-6-[(2-pyridinylimino)methyl]phenol] | Moderate (Moderate, indicates that 50% or less of the compound bound to OBP2.) | 47.7 | 0.278 | 10
3 | O=C1NC(=S)SC1=Cc1ccc(N2CCOCC2)c([N+](=O)[O-])c1 [compound 86, 5-[4-(4-morpholinyl)-3-nitrobenzylidene]-2-thioxo-1,3-thiazolidin-4-one] | Moderate (Moderate, indicates that 50% or less of the compound bound to OBP2.) | 38.1 | 0.25 | 8
4 | CCOc1ccccc1C=NN1C(=O)c2ccccc2C1=O [compound 79] | Moderate (Moderate, indicates that 50% or less of the compound bound to OBP2.) | 23.1 | 1 | 2
5 | CC(=O)c1ccccc1NC(=O)C1CCC(C(=O)Nc2ccccc2C(C)=O)S1 (stereo not shown) [compound 68, N,N′-bis(2-acetylphenyl)tetrahydro-2,5-thiophenedicarboxamide] | Moderate (Moderate, indicates that 50% or less of the compound bound to OBP2.) | 20.8 | 0.5 | 2
6 | COc1cc(C2N=C(c3ccccc3)N=C(c3ccccc3)N2)ccc1O (stereo not shown) [compound 67, 4-(4,6-diphenyl-1,2-dihydro-1,3,5-triazin-2-yl)-2-methoxyphenol] | Moderate (Moderate, indicates that 50% or less of the compound bound to OBP2.) | 26.5 | 0.321 | 9
7 | Nc1c(C(=O)c2ccccc2)sc2nc(-c3cccnc3)ccc12 [compound 75, [3-amino-6-(3-pyridinyl)thieno[2,3-b]pyridin-2-yl](phenyl)methanone] | Moderate (Moderate, indicates that 50% or less of the compound bound to OBP2.) | 25.0 | 0.542 | 13
8 | Oc1ccc2ccccc2c1C=Nc1ccc(I)cc1 [compound 74, 1-{[(4-iodophenyl)imino]methyl}-2-naphthol] | Moderate (Moderate, indicates that 50% or less of the compound bound to OBP2.) | 25.0 | 0.45 | 18
9 | CCOC(=O)c1cc(CC)sc1NC(=O)c1ccccc1 [compound 81, ethyl 2-(benzoylamino)-5-ethyl-3-thiophenecarboxylate] | Moderate (Moderate, indicates that 50% or less of the compound bound to OBP2.) | 37.5 | 0.333 | 6
10 | CCOC(=O)c1ccc(N2NC(=O)C(=Cc3ccc(N4CCOCC4)cc3)C2=O)cc1 [compound 101] | Moderate (Moderate, indicates that 50% or less of the compound bound to OBP2.) | 20.9 |  | 
11 | O=C1CCC(=O)N1CC(O)Cn1c2ccc(Br)cc2c2cc(Br)ccc21 (stereo not shown) [compound 93] | Moderate (Moderate, indicates that 50% or less of the compound bound to OBP2.) | 14.0 |  | 
12 | Oc1c(I)cc2oc3c(c2c1C=Nc1nc[nH]n1)CCCC3 [compound 96] | Moderate (Moderate, indicates that 50% or less of the compound bound to OBP2.) | 28.6 |  | 
13 | O=c1nc(C(F)(F)F)cc(C=Cc2ccc(-c3cccc(Cl)c3)o2)[nH]1 [compound 108] | Moderate (Moderate, indicates that 50% or less of the compound bound to OBP2.) | 16.2 |  | 
14 | COc1ccc(-c2ccc(C=NNC(=O)c3ccccn3)o2)cc1Cl [compound 114] | Moderate (Moderate, indicates that 50% or less of the compound bound to OBP2.) | 22.2 |  | 

Source: US9796676B2, “Honeybee repellents and uses thereof” (Inscent, Inc., priority 2013, dated 2017)
